Structures are written as SMILES.

Assay [1] deals with white blood cells. In words: DHR 123 flow cytometry blood test: RH 123 fluorescence (ROS generation), channel 1 FL1-A. The format is cell-based, human. As for the experimental part: See FIG. 1 and FIG. 2 for exemplary flow diagrams of the method. Whole peripheral blood samples were obtained from subjects and collected in lithium heparin tubes. Samples were diluted 1:100 in electrolyte solution supplemented with 10% heat-inactivated fetal-bovine serum (FBS). Samples were incubated with 5 μg of dihydrorhodamine 123 (DHR 123) at 37° C. under 5% CO2 for 15 min. Cells were treated with 1 μM Phorbol-12-Myristate-13-Acetate (PMA), an exogenous stimulant, or an equal volume of PBS (negative control), and incubated for 30 min to 1 hr.
RBCs of the sample were lysed, fixed, and removed prior to flow cytometry analysis. Briefly, cells were lysed and partially fixed using 3% (v/v) lysis buffer and 1% (v/v) formaldehyde in phosphate-buffered saline (PBS). Samples were incubated for 2 min or until turbidity of the solution was resolved indicating essentially complete lysis of RBCs, and the sample centrifuged at 300×g for 5 min at room temperature (RT). RBC-containing supernatant was discarded, and remaining leukocytes were fixed using 3.7% (v/v) formaldehyde and centrifuged at 300×g at RT for 5 min. Samples were washed twice in FBS and centrifuged at 300×g at RT for 5 min. After washing, the cells were blocked with FC block (Invitrogen, USA) and 2% FBS for 30 min on ice and then incubated with staining buffer containing manufacturer-specified dilutions of fluorophore-conjugated antibodies specific for granulocytes (e.g., neutrophils, basophils, and/or eosinophils) or granulocyte activation (e.g., degranulation). Cells were washed twice and resuspended in PBS prior to analysis using a BD Accuri C6 Flow Cytometer (BD Biosciences, USA). Statistical analysis was performed using the FlowJo v10 (FlowJo, Oregon, USA).
A sample of whole blood was treated with DHIR 123 or mock at 37° C. for 15 min, then treated with phorbol 12-myristate 13-acetate (PMA) and incubated for 25 min. Red and white blood cells were lysed and fixed as described above. Flow cytometry results are shown in FIGS. 3A-3D for negative control (FIG. 3A), DHR 123 only treated control (FIG. 3B), DHR 123+PMA treated (FIG. 3C), as well as an overlap plot of each (FIG. 3D).
Provided below is an exemplary protocol for DHR 123 treatment and cell surface marker staining for DHR 123 flow cytometry blood test. • 1. Obtain a blood sample from a subject; e.g., • 1 mL blood sample for each person was obtained. • 2. Treat with DHR 123 and/or stimulant (e.g., PMA); e.g., • 100 μL whole blood was used for each group: 1) cell only control; 2) DHR 123 loaded cells; 3) DHR 123 loaded cells stimulated with stimulant (e.g., PMA). […] Fix and lyse the cells; e.g., • After stimulant treatment, the cells were fixed and red blood cells were concurrently lysed by adding lysis/fixation solution (e.g., 850 μL (800 μl PBS, 25 μL lyse solution, […])) and incubating 5 min at room temperature. • 4. Prepare cells for staining; e.g., • Cells were centrifuged and the supernatant discarded; • Formaldehyde solution (e.g., 500 μL, 3.7% formaldehyde) was added and incubated for 5 more minutes for fixation; • Cells were centrifuged and the supernatant discarded; • Cells were washed with 350 μL PBS twice, and then centrifuged before discarding the supernatant; • Cells were centrifuged and the supernatant discarded; • 5. Stain the cells; e.g., • 80 μL staining buffer (PBS+0.1% albumin+0.01% tween 20) was added, along with 5 μL of antibody solution for CD16, CD123 and CD193 and the sample incubated for 30 min at room temperature; • 6. Prepare cells for flow cytometry; e.g., • Cells were washed with PBS, centrifuged and the supernatant discarded; • Cells were resuspended in 125 μL PBS for subsequent flow cytometer analysis.
Flow cytometry analysis of human blood samples was performed following exposure to exogenous dust mite (“DM”) stimulant using time course measurements of RH 123 and PI fluorescence. […]

Assay [2] has as its system white blood cells. In words: Propidium iodide (PI) staining by flow cytometry, channel 3 FL3-A. In kind it is cell-based, human. As for the experimental part:
Cell viability determination using DNA staining was incorporated to improve flow cytometry analysis of granulocyte subpopulations. […] Throughout Example 2, additional exogenous stimulants were tested for their ability to instigate granulocyte release of ROS.
Flow cytometry analysis of human blood samples was performed following exposure to exogenous dust mite (“DM”) stimulant using time course measurements of RH 123 and PI fluorescence. Density plots and histograms were determined for samples containing: control cells only, DHR 123 only, DHR 123+PMA stimulant (positive control), DHR 123+DM stimulant, and DHR 123+3× DM stimulant, following incubation times of 0.5 hours (FIGS. 9A-9J), 1.5 hours (FIGS. 10A-10J), and 2.5 hours (FIGS. 11A-11J), respectively. Propidium iodide staining was used as a measure of cell viability.
Flow cytometry analysis of human blood samples was performed following exposure to exogenous DM, ragweed pollen (RWP), milk (MLK), cucumber (CUC), and basil (BAS) stimulants using RH 123 and PI fluorescence measurement. Density plots and histograms were determined for samples containing: control cells, DHR 123 only, DHR 123+PMA stimulant, DHR 123+DM stimulant, DHR 123+RWP stimulant (1×: 2.5 μL; 2×: 5.0 μL), DHR 123+MLK stimulant (5 μL), DHR 123+CUC stimulant (5 μL), and DHR 123+BAS stimulant (5 μL), following an incubation times of 0.5, 1.5, and 2.5 hours. See RH 123 (FL1-A) density plots at FIGS. 13A-13H; RH 123 (FL1-A) histograms at FIGS. 14A-14H; propidium iodide (PI) (FL3-A) density plots at FIGS. 15A-15H; PI (FL3-A) histograms at FIGS. 16A-16H).
DHR 123 and PI flow cytometry blood testing was repeated using increased amounts of stimulant (8 μL of DM stimulant or RWP stimulant per 100 μL blood) and incubated for 2.5 hours.

[3] abbreviates: after 40-minute stimulation of PMA.

As to `CCCCCCCCCCCCCC(=O)O[C@@H]1[C@@H](C)[C@@]2(O)[C@@H](C=C(CO)C[C@]3(O)C(=O)C(C)=C[C@@H]23)[C@@H]2C(C)(C)[C@]12OC(C)=O` [PMA, Phorbol-12-Myristate-13-Acetate], the “activation of granulocyte populations (summary of Example 2)” value in assay [1] is listed as “induced the activation of all granulocyte populations”. Moreover, in assay [1] (CD33(−) lymphocyte population (M1)), the “stimulation of lymphocytes (in words)” value is reported as “not stimulated”. Besides, the “Mean FL1-A (0.5 h)” value in assay [1] (R123, 0.5 h, PMA, RWP1 2.5 μL, MLK, CUC, BAS 5 μL per 100 μL blood (Table 5)) is recorded as 58,792.96. The “Mean FL1-A (1.5 h)” value in assay [1] (R123, 1.5 h, PMA, RWP1 2.5 μL, MLK, CUC, BAS 5 μL per 100 μL blood (Table 5)) is listed as 168,741.44. For the same compound, the “Mean FL1-A (2.5 h)” value in assay [1] (R123, 2.5 h, PI stained, PMA, RWP1 2.5 μL, MLK, CUC, BAS 5 μL per 100 μL blood (Table 5)) was 361,510.02. Also, in assay [1] (RH 123, 0.5 h incubation, PMA or DM 2 μL/100 μL blood), the “MFI (0.5 h) FL1-A” value is 5,076.27. The “MFI (1.5 h) FL1-A” value in assay [1] (RH 123, 1.5 h incubation, PMA or DM 2 μL/100 μL blood) is given as 14,093.83. In addition, the “MFI (2.5 h) FL1-A” value in assay [1] (RH 123, 2.5 h, increased stimulant, 8 μL DM or RWP per 100 μL blood (Table 7)) is recorded as 10,553.44; in assay [1] (RH 123, 2.5 h incubation, PI stained, PMA or DM 2 μL/100 μL blood), 9,353.98. The “RH 123 average intensity of peak” value in assay [1] (setting [3]) is recorded as “about 10^6 unit”. In addition, in assay [1] (setting [3]), the “RH 123 average intensity relative to negative control (DHR 123 only)” value is on record as ~500 times. Also, the “RH 123 fluorescence / ROS generation (in words)” value in assay [1] (vs cells loaded with DHR 123 only) is “strong green fluorescence”. In addition, the “MFI (2.5 h) FL3-A” value in assay [2] (PMA or DM 2 μL/100 μL blood (Table 4)) is on record as 17,902.33; in assay [2] (increased stimulant, 8 μL DM or RWP per 100 μL blood (Table 7)), 11,914.00. Further, in assay [2] (PMA, RWP1 2.5 μL, MLK, CUC, BAS 5 μL per 100 μL blood (Table 6)), the “Mean FL3-A (2.5 h)” value was 34,645.62.

These data come from patent US20250327794A1, “FLUOROMETRIC METHODS FOR DETECTION OF ALLERGIC SENSITIVITY TO ENVIRONMENTAL, FOODSTUFF, AND MEDICAMENT STIMULANTS” (CELL SCIENCE SYSTEMS CORPORATION, priority 2022, published 2025).
